Laboratory results as given in US20260283999A1, “STAT3 INHIBITOR TO TREAT SU[…]” (UNIVERSITY OF FLORIDA RESEARCH FOUNDATION, INCORPORATED, priority 2022, published 2026).

Columns and labels:
SAH model [1] = test: Cerebral blood flow by laser speckle perfusion imaging after SAH; type: in vivo; details: mice, 48 hours after SAH; 5 mg/kg repetitive dosing following SAH; FIG. 3
Description: (§1) Studies were conducted wherein repetitive dosing on days 1, 2, and 3 following SAH occurred with 5 mg/kg of the p-STAT3 inhibitor. […] The STAT inhibitor used in these studies was LLL12B.
The SAH model utilized modified autologous blood injection to basal cisterns adjacent to right anterior circulation. [Dodd W S, Noda I, Martinez M, Hosaka K, Hoh BL. NLRP3 inhibition attenuates early brain injury and delayed cerebral vasospasm after subarachnoid hemorrhage. J Neuroinflammation. 2021; 18 (1): 163.]. Briefly, mice we anesthetized with 10 mg/kg xylazine and 100 mg/kg ketamine prior to shaving/cleaning the scalp. The tail was prepped, shaved, and cleaned. The mouse's head was fixed to the stereotaxic frame and body temperature maintained at 37° C. using a heating pad. […] The mouse's respiratory rate was closely monitored. […]
Four mice per group were utilized. Cerebral blood flow was measured with a laser speckle perfusion imager at 48 hours after SAH. […] Sufficient readings were able to be achieved without bone flap removal. […] Average perfusion per animal was documented and an imaging voxel with a calculated mean of 9.7 was used to measure bilateral MCA territory perfusion. A ratio of right to left MCA perfusion was calculated for each animal to allow reliable comparisons between groups and to control for variance in baseline blood pressure differences. […]

SAH model [2] = test: Immunohistochemistry of brain slices after SAH (p-STAT3, Arg1, Cox2, iNOS, TLR-4); type: in vivo; details: mice, following SAH; 5 mg/kg on days 1, 2, and 3 following SAH
Description: as §1
The SAH model utilized modified autologous blood injection to basal cisterns adjacent to right anterior circulation. [Dodd W S, Noda I, Martinez M, Hosaka K, Hoh BL. NLRP3 inhibition attenuates early brain injury and delayed cerebral vasospasm after subarachnoid hemorrhage. J Neuroinflammation. 2021; 18 (1): 163.]. Briefly, mice we anesthetized with 10 mg/kg xylazine and 100 mg/kg ketamine prior to shaving/cleaning the scalp. The tail was prepped, shaved, and cleaned. The mouse's head was fixed to the stereotaxic frame and body temperature maintained at 37° C. using a heating pad. The scalp was incised along the sagittal suture from bregma to the nasal bone. The skin was reflected and held in place by retraction. The burr hole was positioned 5.0 mm rostral to bregma and 0.5 mm right of midline. Next, 150 μL of arterial blood was drawn from the tail artery. 50 μL of blood was drawn up into a Hamilton syringe. The syringe needle was passed at a 30° caudal angle until it reached the skull base. The syringe was left in place and blood was manually injected at a rate of 10 μL/min. The mouse's respiratory rate was closely monitored. […]

Question: What does the source list for CN(C)C(=O)Oc1cccc2c1C(=O)c1cccc(S(N)(=O)=O)c1C2=O [LLL12B]?
Answer: cerebral blood flow (SAH model [1]): protective benefit for cerebral blood flow showing decreased risk for ischemia; systemic neuroinflammation (immunochemistry) (SAH model [2]): reduces systemic neuroinflammation
